For orientation: IC50 means the concentration that gives 50% inhibition.

Bounds are passed on as bounds.

The values that follow come from patent US20050154031A1, “5-Ht2b receptor antagonists” (priority 2002, published 2005).

In test [1] the target is T1, cloned human 5-HT2A receptor (Homo sapiens, UniProt P28223).
T1 construct: purchased Euroscreen; host or cells: CHO-K1
The experiment in a line: Human 5-HT2A receptor binding assay ([3H]ketanserin). To be noted: membranes of CHO-K1 cells expressing cloned human 5-HT2A receptor, [3H]ketanserin 1 nM; read-out: 5-HT2A pKi (converted). The procedure:
(§1) Human 5-HT2A and 5-HT2C Receptor Binding Assays
(§2) The binding affinity of ligands for human 5-HT2A and 5-HT2C receptors was determined using the following assay.
Membrane preparations from CHO-K1 cells expressing the cloned human 5-HT2A receptor were obtained (Euroscreen). The membranes were thawed rapidly and diluted in assay buffer containing Tris-HCl (50 mM, pH 7.7). The membranes were resuspended by homogenisation, prior to adding 15 μg of membranes to assay wells containing [^3H] ketanserin (1 nM), assay buffer (50 mM Tris at pH 7.4) containing pargyline (10 μM), and test compounds (1×10^−10 to 1×10^−4M). Non specific binding was determined in the presence of 100 μM mianserin. After 15 minutes incubation at 37° C., the assay mixture was filtered through a combination of GF-C and GF-B filters, pre-soaked in 0.05% Brij, using a Brandel cell harvester, and were washed three times using ice cold Tris-HCl buffer (50 mM). Radioactivity retained on the filters was determined by liquid scintillation counting. For each test compound, the concentration that inhibited binding of [^3H]ketanserin by 50% was determined using curve fitting software (Prism). Kd values (concentration of ketanserin required to occupy 50% of the receptor binding sites at equlibrium)determined from saturation binding studies were then used to calculate inhibition dissociation constants (Ki) using the following equation: [formula]

Test [2] has as its target T2, human cloned 5-HT2B receptors (Homo sapiens, UniProt P41595).
T2 construct: expressed in transfected cells; host or cells: CHO-K1
The experiment in a line: Human cloned 5-HT2B cell-based functional assay (Fluo-4, block of 5-HT response). The conditions noted are these: CHO.K1 cells expressing cloned 5-HT2B receptor, inhibition of the 5-HT response. The procedure: Human Cloned […] Cell-Based Functional Assay The following describes an in vitro functional assay using human cloned 5-HT2B receptors to determine the ability of compounds to block the receptor. CHO.K1 cells expressing cloned 5-HT2B receptor were maintained In Ultra-CHO medium containing 400 μg/ml of G418, 100 U/ml penicillin, 100 μg/ml streptomycin, 2.5 μg/ml fungizone, in 95/5% O2/CO2 at 37° C. Ultra-CHO medium additionally supplemented with 1% foetal bovine serum was used when seeding the cells and removed after 5 hours. Cells were plated in Costar 96 well white, clear-bottomed plate at a density of 50,000 cells per well and incubated for at least 24 hours in 95/5% O2/CO2 at 37° C. before running the assay. Media was removed from the wells and 200 μl of 4 μM Fluo-4 AM added, this was incubated in a Wallace Victor 2V workstation at 37° C. for 30 minutes. The Fluo-4 AM was then removed from the wells, which were then washed twice with 200 μl of buffer (HBSS without calcium/magnesium/phenol red, 20 mM HEPES, 1 mM Ca^2+, 1 mM Mg^2+, 2.5 mM probenecid, pH to 7.4), 180 μl of buffer or test compound was added to the well and incubated for 30 minutes. The Victor 2V injectors were used to inject 20 μl of 5-HT after obtaining 10 0.1-second baseline readings at 535 nm, followed by 150 readings. All test compounds were aliquoted in 100% DMSO at 10 mM and diluted to 1 mM in 50% DMSO, subsequent dilutions were made using buffer. Buffer was also used to dilute the 5-HT. Data were analysed using Microsoft Excel and GraphPad Prism, with the latter used to produce sigmoidal dose-response curves for each compound. The compound concentration that inhibited the 5-HT response by 50% was taken (IC50−M), and the results are shown in Table 2, as pIC50, being the negative log (to the base 10) of the measured IC50 values.

In test [3] the target is T3, cloned human 5-HT2C receptor (Homo sapiens, UniProt P28335).
T3 construct: purchased Euroscreen; host or cells: CHO-K1
T3 sequence (P28335 33-458): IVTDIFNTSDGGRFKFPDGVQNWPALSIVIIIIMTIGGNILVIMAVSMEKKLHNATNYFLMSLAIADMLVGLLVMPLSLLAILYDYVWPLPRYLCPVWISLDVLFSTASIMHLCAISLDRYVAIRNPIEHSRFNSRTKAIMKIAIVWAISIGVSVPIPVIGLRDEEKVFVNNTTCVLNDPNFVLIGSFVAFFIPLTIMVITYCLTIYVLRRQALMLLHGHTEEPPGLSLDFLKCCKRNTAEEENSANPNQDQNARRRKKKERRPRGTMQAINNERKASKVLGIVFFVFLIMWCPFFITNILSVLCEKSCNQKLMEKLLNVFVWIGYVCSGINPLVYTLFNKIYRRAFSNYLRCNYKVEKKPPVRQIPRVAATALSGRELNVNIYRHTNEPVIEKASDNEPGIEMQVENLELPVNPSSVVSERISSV
Description: Human 5-HT2C receptor binding assay ([3H]mesulergine). To be noted: membranes of CHO-K1 cells expressing cloned human 5-HT2C receptor, [3H]mesulergine 1 nM; read-out: 5-HT2C pKi (converted). How it is done: as §1, §2
Membrane preparations from CHO-K1 cells expressing the cloned human 5-HT2C receptor were obtained (Euroscreen). The membranes were thawed rapidly and diluted in assay buffer containing Tris-HCl (50 mM, pH 7.7), ascorbic acid (0.1%) and pargyline (10 μM). The membranes were resuspended by homogenisation, prior to adding 6 μg of membranes to assay wells containing [^3H] mesulergine (1 nM), assay buffer (50 mM Tris at pH 7.7 and 0.1% ascorbic acid) containing pargyline (10 μM), and test compounds (1×10^−10 to 1×10^−4M). Non specific binding was determined in the presence of 100 μM mianserin. After 30 minutes incubation at 37° C., the assay mixture was filtered through a combination of GF-C and GF-B filters, pre-soaked in 1% bovine serum albumin, using a Brandel cell harvester, and were washed three times using ice cold Tris-HCl buffer (50 mM). Radioactivity retained on the filters was determined by liquid scintillation counting. For each test compound, the concentration that inhibited binding of [^3H]mesulergine by 50% was determined using curve fitting software (Prism). Kd values (concentration of mesulergine required to occupy 50% of the receptor binding sites at equlibrium) determined from saturation binding studies were then used to calculate inhibition dissociation constants (Ki) using the following equation: [formula]

The target of test [4] is T2, human cloned 5-HT2B receptors. The experiment in a line: Human cloned 5-HT2B receptor binding assay ([3H]LSD). The conditions noted are these: membranes of CHO-K1 cells expressing cloned 5-HT2B receptor, [3H]LSD 1 nM; read-out: 5-HT2B pKi (converted). How it is done:
Human Cloned 5-HT2B Receptor Binding Assay
The binding affinity of the compounds for human cloned 5-HT2B receptors was determined using the following assay.
CHO-K1 cells expressing cloned 5-HT2B receptor were maintained in Ultra-CHO medium containing 400 μg/ml of G418, 100 U/ml penicillin, 100 μg/ml streptomycin, 2.5 μg/ml fungizone and 1% foetal bovine serum, in 95/5% O2/CO2 at 37° C. The cells were harvested using 0.25% trypsin and were centrifuged at 800 rpm for 8 minutes. The cells were homogenised in 50 mM HEPES buffer containing 1 mM disodium EDTA and 1 mM PMSF at pH 7.4, using a Dounce homogeniser (20 strokes). The homogenate was centrifuged at 2280 rpm (1000 g) and 4° C. for 10 minutes, after which the supernatant was removed by decanting. The pellet was re-homogenised as above, and the resulting supernatant removed and combined with that already obtained. The supernatant solution was then centrifuged at 18300 rpm (40000 g) for 10 minutes at 4° C. using a Sorvall centrifuge. The supernatant was removed, and the pellet was re-suspended in 50 mM buffer at pH 7.4 using a Ultra-turrax T25 Polytron, before centrifugation again at 40000 g as above. This wash procedure was repeated, after which the membrane preparation was stored at a concentration of 1 mg/ml at −80° C. until use.
The membranes were thawed rapidly and diluted in assay buffer containing Tris-HCl (50 mM, pH 7.4), ascorbic acid (0.1%) and calcium chloride (4 mM). The membranes were homogenised to resuspend them, prior to adding 10 or 15 μg of membranes to assay wells containing [^3H]LSD (1 nM), assay buffer (50 mM Tris, 4 mM calcium chloride and 0.1% ascorbic acid) containing pargyline (10 μM), and the test compounds (1×10^−10 to 1×10^−4 M). Non specific binding was determined in the presence of 100 μM 5-HT. After 30 minutes incubation at 37° C., the assay mixture was filtered through a combination of GF-C and GF-B filters, pre-soaked in 1% polyethyleneimine, using a Brandel cell harvester, and were washed three times using 50 mM Tris-HCl. Radioactivity retained on the filters was determined by liquid scintillation counting. For each test compound, the concentration that inhibited binding of [^3H)LSD by 50% was determined using curve fitting software (Prism). Kd values (concentration of LSD required to occupy 50% of the receptor binding sites at equilibrium) determined from saturation binding studies were then used to calculate inhibition dissociation constants (Ki) using the following equation: [formula]
This approach follows that set out in Kenakin, T. P. Pharmacologic analysis of drug-receptor interaction. Raven Press, New York, 2nd Edition, which is incorporated herein by reference.

T2 sequence (P41595 whole entry): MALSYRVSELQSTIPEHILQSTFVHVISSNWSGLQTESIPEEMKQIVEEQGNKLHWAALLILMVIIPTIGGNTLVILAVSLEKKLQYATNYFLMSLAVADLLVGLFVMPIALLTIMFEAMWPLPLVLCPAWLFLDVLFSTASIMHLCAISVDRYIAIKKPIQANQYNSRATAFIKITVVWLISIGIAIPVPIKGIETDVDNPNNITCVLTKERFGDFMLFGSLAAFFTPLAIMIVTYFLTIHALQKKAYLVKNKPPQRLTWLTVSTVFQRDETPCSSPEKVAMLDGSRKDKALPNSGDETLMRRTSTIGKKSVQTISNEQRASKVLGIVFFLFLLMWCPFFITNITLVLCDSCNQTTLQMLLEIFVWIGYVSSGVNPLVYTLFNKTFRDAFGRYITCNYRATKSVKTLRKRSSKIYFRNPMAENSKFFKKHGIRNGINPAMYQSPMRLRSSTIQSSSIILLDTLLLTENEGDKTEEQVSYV
T1 sequence (P28223 whole entry): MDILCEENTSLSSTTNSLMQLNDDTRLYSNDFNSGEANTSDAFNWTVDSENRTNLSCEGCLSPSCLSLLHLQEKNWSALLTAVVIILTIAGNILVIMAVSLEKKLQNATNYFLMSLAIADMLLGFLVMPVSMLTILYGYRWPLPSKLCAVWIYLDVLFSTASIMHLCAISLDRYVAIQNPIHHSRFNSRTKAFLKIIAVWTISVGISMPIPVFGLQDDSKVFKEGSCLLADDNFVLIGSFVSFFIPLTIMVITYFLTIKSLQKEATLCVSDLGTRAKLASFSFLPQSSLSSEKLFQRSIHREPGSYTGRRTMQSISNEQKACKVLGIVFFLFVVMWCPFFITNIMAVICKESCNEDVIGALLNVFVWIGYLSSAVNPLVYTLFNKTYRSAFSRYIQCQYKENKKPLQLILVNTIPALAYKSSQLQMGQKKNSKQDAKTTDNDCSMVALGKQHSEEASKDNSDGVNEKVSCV

With `Nc1nc(-c2ccc3ccccc3c2)cs1` [Compound 4, 2-amino-4-(naphth-2-yl)thiazole], the results for the Ki in test [1], in test [3] and in test [4] were greater than 10 µM, greater than 10000 nM and less than 10000 nM, respectively. Moreover, the IC50 in test [2] is less than 10000 nM.

For `Nc1nc(-c2cccc3ccccc23)cs1` [Compound 3, 2-amino-4-(naphth-1-yl)thiazole], the Ki in test [1] was greater than 1 µM; in test [3], greater than 1000 nM; in test [4], less than 1000 nM. In addition, the IC50 in test [2] is less than 1000 nM.

As to `CC(C)c1sc(N)nc1-c1cccc2ccccc12` [Compound 2, 2-amino-5-isopropyl-4-(naphth-1-yl)thiazole], the figures for the Ki in test [1], in test [3] and in test [4] were greater than 1 µM, greater than 1000 nM and less than 100 nM, respectively. The same compound showed an IC50 in test [2] of less than 100 nM.

For `Cc1sc(N)nc1-c1cccc2ccccc12` [Compound 1, 2-amino-5-methyl-4-(naphth-1-yl)thiazole], the Ki in test [1] is greater than 10 µM; in test [3], greater than 1000 nM; in test [4], less than 1000 nM. Moreover, the IC50 in test [2] is less than 1000 nM.
